Values quoted from earlier work as cited in patent publication US7598403B2, “Synthesis of chromanones” (priority 2003, dated 2009).

System: day-old broiler chicks
Settings: administered to day-old broiler chicks (Lee et al., 1985)

For `CC1(C)CC(=O)c2c(ccc(C(=O)CC(N)CO)c2N)O1` (racemic) [FC101, 5-amino-2,2-dimethyl-6-[3′-(R,S)amino-4′-hydroxy-butan-1-one]-2,3-dihydro-4H-1-benzopyran-4-one], the “induction of Avian Tibial Dyschondroplasia (ATD)” value is listed as “cause ATD”.
